Experiment [1] can be described thus: Antiproliferative activity against VEGF-stimulated HUVEC cells assessed as reduction in cell viability at 2 nM preincubated for 1 hr followed by addition of VEGF measured after 72 hrs by MTT assay. As to conditions: Homo sapiens. The format is functional.
Experiment [2] can be described thus: Antiproliferative activity against VEGF-stimulated HUVEC cells assessed as reduction in cell viability at 0.5 nM preincubated for 1 hr followed by addition of VEGF measured after 72 hrs by MTT assay. The format is functional. Particulars: Homo sapiens.

Molecules are shown by their SMILES.

For orientation: inhibition means the change of the read-out against control, counted positive when it falls.

As to `CC(C)C(NC(=O)c1ccccc1Nc1ccc2c(/C=C/c3ccccn3)n[nH]c2c1)C(C)C`, the inhibition at 0.002 µM in experiment [1] was -2%. Besides, the inhibition at 0.0005 µM in experiment [2] was 18%.
In the case of `O=C(NCCOc1ccccc1)c1ccccc1Nc1ccc2c(/C=C/c3ccccn3)n[nH]c2c1`, the inhibition at 0.002 µM in experiment [1] is 73%. In experiment [2], the inhibition at 0.0005 µM came out at 16%.
The corresponding values for `COC(=O)NNC(=O)c1ccccc1Nc1ccc2c(/C=C/c3ccccn3)n[nH]c2c1` are 21% and 8%.
Consider `NC(=O)c1ccccc1Nc1ccc2c(/C=C/c3ccccn3)n[nH]c2c1`, for which, in experiment [1], the inhibition at 0.002 µM is 30%. Besides, the inhibition at 0.0005 µM in experiment [2] was determined as 9%.
For `CC(C)CCCC(C)NC(=O)c1ccccc1Nc1ccc2c(/C=C/c3ccccn3)n[nH]c2c1` (centres undefined), the inhibition at 0.002 µM in experiment [1] was determined as 32%. For the same molecule, in experiment [2], the inhibition at 0.0005 µM turned out to be 20%.
As for `CCN(CC)CCCCNC(=O)c1ccccc1Nc1ccc2c(/C=C/c3ccccn3)n[nH]c2c1`, the inhibition at 0.002 µM in experiment [1] came to 36%. Besides, the inhibition at 0.0005 µM in experiment [2] amounted to 22%.
The corresponding values for `CCC(O)CNC(=O)c1ccccc1Nc1ccc2c(/C=C/c3ccccn3)n[nH]c2c1` (centres undefined) are 23% and 13%.
As to `O=C(Nc1nncs1)c1ccccc1Nc1ccc2c(/C=C/c3ccccn3)n[nH]c2c1`, the inhibition at 0.002 µM in experiment [1] stood at 28%. Moreover, in experiment [2], the inhibition at 0.0005 µM amounted to 44%.
As for `O=CNNC(=O)c1ccccc1Nc1ccc2c(/C=C/c3ccccn3)n[nH]c2c1`, the inhibition at 0.002 µM in experiment [1] was 29%. Further, the inhibition at 0.0005 µM in experiment [2] was 28%.
For `COc1cccc(CNC(=O)c2ccccc2Nc2ccc3c(/C=C/c4ccccn4)n[nH]c3c2)c1`, in experiment [1], the inhibition at 0.002 µM is 100%. Moreover, in experiment [2], the inhibition at 0.0005 µM is 58%.
`O=C(NCCCN(CCO)CCO)c1ccccc1Nc1ccc2c(/C=C/c3ccccn3)n[nH]c2c1`: the inhibition at 0.002 µM in experiment [1] was 4%. Further, the inhibition at 0.0005 µM in experiment [2] came to 4%.
Turning to `O=C(NCCc1ccccn1)c1ccccc1Nc1ccc2c(/C=C/c3ccccn3)n[nH]c2c1`, in experiment [1], the inhibition at 0.002 µM was determined as 91%. In addition, the inhibition at 0.0005 µM in experiment [2] was found to be 49%.
`O=C(NCc1cccc(F)c1)c1ccccc1Nc1ccc2c(/C=C/c3ccccn3)n[nH]c2c1`: the inhibition at 0.002 µM in experiment [1] was 95%. The inhibition at 0.0005 µM in experiment [2] is 81%.
On to `COCCCNC(=O)c1ccccc1Nc1ccc2c(/C=C/c3ccccn3)n[nH]c2c1`, for which, in experiment [1], the inhibition at 0.002 µM worked out at 31%. Also, the inhibition at 0.0005 µM in experiment [2] was 26%.
Consider `Cc1cc(NC(=O)c2ccccc2Nc2ccc3c(/C=C/c4ccccn4)n[nH]c3c2)on1`, for which the inhibition at 0.002 µM in experiment [1] worked out at 31%. Further, the inhibition at 0.0005 µM in experiment [2] worked out at 26%.
`Cc1cnc(NC(=O)c2ccccc2Nc2ccc3c(/C=C/c4ccccn4)n[nH]c3c2)s1`: in experiment [1], the inhibition at 0.002 µM worked out at 92%. Besides, the inhibition at 0.0005 µM in experiment [2] is 20%.
For `O=C(NCC1CCCO1)c1ccccc1Nc1ccc2c(/C=C/c3ccccn3)n[nH]c2c1` (centres undefined), the inhibition at 0.002 µM in experiment [1] was 44%. For the same molecule, the inhibition at 0.0005 µM in experiment [2] is 23%.
Take `CC(C)OCCCNC(=O)c1ccccc1Nc1ccc2c(/C=C/c3ccccn3)n[nH]c2c1`: the inhibition at 0.002 µM in experiment [1] is 99%. The inhibition at 0.0005 µM in experiment [2] is 34%.
The corresponding values for `O=C(NCCC1=CCCCC1)c1ccccc1Nc1ccc2c(/C=C/c3ccccn3)n[nH]c2c1` are 86% and 24%.
Turning to `O=C(NCCC1OCCO1)c1ccccc1Nc1ccc2c(/C=C/c3ccccn3)n[nH]c2c1`, the inhibition at 0.002 µM in experiment [1] is 68%. Further, the inhibition at 0.0005 µM in experiment [2] came to 38%.
As to `O=C(NCCc1ccncc1)c1ccccc1Nc1ccc2c(/C=C/c3ccccn3)n[nH]c2c1`, the inhibition at 0.002 µM in experiment [1] was 22%. Moreover, the inhibition at 0.0005 µM in experiment [2] was found to be 18%.
The corresponding values for `CNC(=O)CNC(=O)c1ccccc1Nc1ccc2c(/C=C/c3ccccn3)n[nH]c2c1` are 26% and -1%.
Taken in the same sequence, the figures for `O=C(NCC1(O)CCCCC1)c1ccccc1Nc1ccc2c(/C=C/c3ccccn3)n[nH]c2c1` were -19% and 26%.
As for `Cn1cncc1CCNC(=O)c1ccccc1Nc1ccc2c(/C=C/c3ccccn3)n[nH]c2c1`, the inhibition at 0.002 µM in experiment [1] was found to be 0%. Further, the inhibition at 0.0005 µM in experiment [2] was -6%.
Taken in the same sequence, the figures for `O=C(NC1CCS(=O)(=O)C1)c1ccccc1Nc1ccc2c(/C=C/c3ccccn3)n[nH]c2c1` (centres undefined) were 2% and 27%.
Turning to `O=C(Nc1nc[nH]n1)c1ccccc1Nc1ccc2c(/C=C/c3ccccn3)n[nH]c2c1`, in experiment [1], the inhibition at 0.002 µM turned out to be 22%. Besides, the inhibition at 0.0005 µM in experiment [2] was determined as 19%.
The corresponding values for `O=C(NCCOCCO)c1ccccc1Nc1ccc2c(/C=C/c3ccccn3)n[nH]c2c1` are 24% and 10%.
In the case of `Cn1cccc1C(=O)NNC(=O)c1ccccc1Nc1ccc2c(/C=C/c3ccccn3)n[nH]c2c1`, the inhibition at 0.002 µM in experiment [1] was determined as 49%. In addition, the inhibition at 0.0005 µM in experiment [2] stood at 68%.
As for `CCC(CC)NC(=O)c1ccccc1Nc1ccc2c(/C=C/c3ccccn3)n[nH]c2c1`, the inhibition at 0.002 µM in experiment [1] was found to be 14%. Also, in experiment [2], the inhibition at 0.0005 µM is 25%.
Consider `COC[C@H]1CCCN1NC(=O)c1ccccc1Nc1ccc2c(/C=C/c3ccccn3)n[nH]c2c1`, for which the inhibition at 0.002 µM in experiment [1] is 11%. The inhibition at 0.0005 µM in experiment [2] was 18%.
As to `NC(=O)CNC(=O)c1ccccc1Nc1ccc2c(/C=C/c3ccccn3)n[nH]c2c1`, the inhibition at 0.002 µM in experiment [1] turned out to be 4%. In addition, the inhibition at 0.0005 µM in experiment [2] was 6%.
Take `O=C(NC1CCCCC1)c1ccccc1Nc1ccc2c(/C=C/c3ccccn3)n[nH]c2c1`: the inhibition at 0.002 µM in experiment [1] amounted to 76%. The inhibition at 0.0005 µM in experiment [2] came to 12%.
Consider `CC(C)C(CO)NC(=O)c1ccccc1Nc1ccc2c(/C=C/c3ccccn3)n[nH]c2c1` (centres undefined), for which, in experiment [1], the inhibition at 0.002 µM is -5%. Moreover, the inhibition at 0.0005 µM in experiment [2] was found to be 21%.
Taken in the same sequence, the figures for `CC(CNC(=O)c1ccccc1Nc1ccc2c(/C=C/c3ccccn3)n[nH]c2c1)N(C)C` (centres undefined) were 1% and -9%.
Taken in the same sequence, the figures for `CCOC(CCNC(=O)c1ccccc1Nc1ccc2c(/C=C/c3ccccn3)n[nH]c2c1)OCC` were 70% and 30%.
Turning to `O=C(NNc1ccccn1)c1ccccc1Nc1ccc2c(/C=C/c3ccccn3)n[nH]c2c1`, the inhibition at 0.002 µM in experiment [1] is 35 to 92%. In addition, the inhibition at 0.0005 µM in experiment [2] lay within 19 to 32%.
`O=C(O)CCCNC(=O)c1ccccc1Nc1ccc2c(/C=C/c3ccccn3)n[nH]c2c1`: in experiment [1], the inhibition at 0.002 µM was 20%. Moreover, the inhibition at 0.0005 µM in experiment [2] turned out to be 16%.
The corresponding values for `O=C(NC(CO)CO)c1ccccc1Nc1ccc2c(/C=C/c3ccccn3)n[nH]c2c1` are 8% and 48%.
Take `CCC(C)CNC(=O)c1ccccc1Nc1ccc2c(/C=C/c3ccccn3)n[nH]c2c1` (centres undefined): the inhibition at 0.002 µM in experiment [1] was 84%. For the same molecule, in experiment [2], the inhibition at 0.0005 µM was 24%.
On to `CCCCC(CC)CNC(=O)c1ccccc1Nc1ccc2c(/C=C/c3ccccn3)n[nH]c2c1` (centres undefined), for which, in experiment [1], the inhibition at 0.002 µM was determined as 47%. Also, in experiment [2], the inhibition at 0.0005 µM worked out at 28%.
For `O=C(NCCCO)c1ccccc1Nc1ccc2c(/C=C/c3ccccn3)n[nH]c2c1`, the inhibition at 0.002 µM in experiment [1] was 23 to 31%. Moreover, in experiment [2], the inhibition at 0.0005 µM fell in the range of 8 to 24%.
The corresponding values for `CCCCCCCNC(=O)c1ccccc1Nc1ccc2c(/C=C/c3ccccn3)n[nH]c2c1` are 34% and 9%.
On to `CN(C)CCCNC(=O)c1ccccc1Nc1ccc2c(/C=C/c3ccccn3)n[nH]c2c1`, for which the inhibition at 0.002 µM in experiment [1] amounted to 1%. In addition, the inhibition at 0.0005 µM in experiment [2] stood at 6%.
On to `O=C(NNC1=NCCN1)c1ccccc1Nc1ccc2c(/C=C/c3ccccn3)n[nH]c2c1`, for which the inhibition at 0.002 µM in experiment [1] worked out at 69%. In addition, in experiment [2], the inhibition at 0.0005 µM amounted to 34%.
The corresponding values for `CN(C)CCNC(=O)c1ccccc1Nc1ccc2c(/C=C/c3ccccn3)n[nH]c2c1` are 10% and 20%.
On to `CCN1CCC[C@@H]1CNC(=O)c1ccccc1Nc1ccc2c(/C=C/c3ccccn3)n[nH]c2c1`, for which the inhibition at 0.002 µM in experiment [1] came to 37%. In experiment [2], the inhibition at 0.0005 µM was determined as 8%.
As for `Nc1ccc(CCNC(=O)c2ccccc2Nc2ccc3c(/C=C/c4ccccn4)n[nH]c3c2)cc1`, the inhibition at 0.002 µM in experiment [1] is 31%. In experiment [2], the inhibition at 0.0005 µM was 32%.
For `O=C(NCP(=O)(O)O)c1ccccc1Nc1ccc2c(/C=C/c3ccccn3)n[nH]c2c1`, the inhibition at 0.002 µM in experiment [1] was determined as 6%. Also, the inhibition at 0.0005 µM in experiment [2] worked out at 32%.
As for `CC(C)N(CCNC(=O)c1ccccc1Nc1ccc2c(/C=C/c3ccccn3)n[nH]c2c1)C(C)C`, in experiment [1], the inhibition at 0.002 µM was 15%. In addition, the inhibition at 0.0005 µM in experiment [2] was 37%.
In the case of `C[C@H](NC(=O)c1ccccc1Sc1ccc2c(/C=C/c3ccccn3)n[nH]c2c1)c1ccc2ccccc2c1`, the inhibition at 0.0005 µM in experiment [2] is -8%.
As for `Cc1ccccc1NC(=O)c1ccccc1Sc1ccc2c(/C=C/c3ccccn3)n[nH]c2c1`, the inhibition at 0.0005 µM in experiment [2] came to 5%.
On the same count and under the same terms, next, `O=C(Nc1ccc2c(c1)CCC2)c1ccccc1Sc1ccc2c(/C=C/c3ccccn3)n[nH]c2c1`: -6%; `CCCCNC(=O)c1ccccc1Nc1ccc2c(/C=C/c3ccccn3)n[nH]c2c1`: 52%.
On the same count and under the same terms, the figure for `O=C(NC12CC3CC(CC(C3)C1)C2)c1ccccc1Sc1ccc2c(/C=C/c3ccccn3)n[nH]c2c1` is 3%; for `CCCCc1ccc(NC(=O)c2ccccc2Sc2ccc3c(/C=C/c4ccccn4)n[nH]c3c2)cc1` it is -22%; for `O=C(Nc1ccc2ncsc2c1)c1ccccc1Sc1ccc2c(/C=C/c3ccccn3)n[nH]c2c1` it is -20%.
As to `C[C@@H](NC(=O)c1ccccc1Sc1ccc2c(/C=C/c3ccccn3)n[nH]c2c1)C1CCCCC1`, the inhibition at 0.0005 µM in experiment [2] was 9%.
Turning to `CC(C)ONC(=O)c1ccccc1Nc1ccc2c(/C=C/c3ccccn3)n[nH]c2c1`, the inhibition at 0.0005 µM in experiment [2] is 35%.
As for `CCCCC(NC(=O)c1ccccc1Sc1ccc2c(/C=C/c3ccccn3)n[nH]c2c1)C(=O)NO` (centres undefined), the inhibition at 0.0005 µM in experiment [2] is 0%.
As to `Cc1cc(NC(=O)c2ccccc2Sc2ccc3c(/C=C/c4ccccn4)n[nH]c3c2)ccc1Cl`, the inhibition at 0.0005 µM in experiment [2] is -43%.

Source of the values: ChEMBL document CHEMBL3880421, “Indazole compounds and pharmaceutical compositions for inhibiting protein kinases, and methods for their use” (2003).
